From patent US12486280B2, “CDK inhibitors and uses thereof” (California Institute of Technology, priority 2018, dated 2025)
Values after ≈ are worked out from the molar mass of the structure shown. Read-outs that look alike come from different tables or passages of the source.

Assays:
CDK4 = CDK4 (Homo sapiens (Human), UniProt P11802); test: Cdk4 and 6 Enzymatic Inhibition Assay (radiometric 33PanQinase, Ki determination); type: biochemical
How it was run: (§1)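 Radiometric 33PanQinase assay in 70 mM HEPES-NaOH pH 7.5 with 3 mM MgCl2, 3 mM MnCl2, [γ-33P]-ATP, kinase and substrate; 60 min at 30° C, 1% DMSO final. Ten final concentrations from 2×10^−6 M to 6×10^−11 M; 33Pi incorporation counted by scintillation after H3PO4 stop.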

CDK6 = CDK6 (Homo sapiens (Human), UniProt Q00534); test: as above; type: biochemical
Sequence of CDK6 (Q00534 whole entry): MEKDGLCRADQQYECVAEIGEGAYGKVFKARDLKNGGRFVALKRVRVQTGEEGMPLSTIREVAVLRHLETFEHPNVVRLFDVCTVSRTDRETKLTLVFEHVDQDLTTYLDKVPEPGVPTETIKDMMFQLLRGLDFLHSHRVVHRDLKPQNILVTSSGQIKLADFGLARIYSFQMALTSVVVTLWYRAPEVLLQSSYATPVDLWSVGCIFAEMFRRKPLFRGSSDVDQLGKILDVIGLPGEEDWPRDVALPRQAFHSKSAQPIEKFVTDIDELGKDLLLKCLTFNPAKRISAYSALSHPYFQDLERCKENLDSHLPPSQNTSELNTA
Sequence of CDK6 (P24385 whole entry partner): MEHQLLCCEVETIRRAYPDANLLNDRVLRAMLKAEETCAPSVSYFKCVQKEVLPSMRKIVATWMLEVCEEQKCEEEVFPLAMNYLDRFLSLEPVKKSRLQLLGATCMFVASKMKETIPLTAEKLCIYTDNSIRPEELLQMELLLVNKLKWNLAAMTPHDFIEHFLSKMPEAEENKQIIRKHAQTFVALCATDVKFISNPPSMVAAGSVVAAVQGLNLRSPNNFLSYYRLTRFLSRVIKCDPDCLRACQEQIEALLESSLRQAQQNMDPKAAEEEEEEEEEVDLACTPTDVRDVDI
How it was run: as §1

[1] = tested on: drug-sensitive cell lines of Table 2 (EFM-19, MDA-MB-453, T-47D, ZR-75-1, NCI-H441, OVTOKO, NCI-H1838); test: Cell Line Growth Retardation Assay, sensitive cohort; type: cell-based, human; details: for IC50: Homo sapiens, geometric mean over sensitive cohort, 6 days growth, read-out: AvgSensIC50; for Ther Window: average IC50 drug-resistant group divided by average IC50 drug-sensitive group
How it was run: (§2)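 Cells rested 24 h, then exposed 6 days to compound at 10, 2, 0.4, 0.08, 0.016 and 0.0032 μM; counted by imaging on day 0 and day 6. Growth inhibition as ratio of population doublings versus vehicle; IC50 from curve fits, cohort values as geometric means.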

[2] = tested on: drug-resistant cell lines of Table 2 (NCI-H1437, OV207, HCC1806, NCI-H2172); test: Cell Line Growth Retardation Assay, resistant cohort; type: cell-based, human; details: Homo sapiens, […], geometric mean over resistant cohort; 6 days growth; read-out: AvgResIC50
How it was run: as §2

[3] = Compound Solubility Assay (kinetic solubility); type: physicochemical; details: kinetic from dmso stock
Experimental: The relative kinetic solubility of each compound was determined at both low (1.2) and neutral (7.4) pH. Compounds were prepared at 10 mM stocks. […] Compounds were allowed to shake at room temperature for 24 hours in 50 mM phosphate buffer pH 7.4, or in SGF buffer pH 1.2 at 37° C. for 24 hours.

[4] = Caco-2 Assay (Papp A to B); details: human, Caco-2, pH 7.4
Experimental: The degree of bi-directional human intestinal permeability for compounds was estimated using a Caco-2 cell permeability assay. Caco-2 cells were seeded onto polyethylene membranes in 96-well plates. The growth medium was refreshed every 4 to 5 days until cells formed a confluent cell monolayer. HBSS with 10 mM HEPES at pH 7.4 was used as the transport buffer. Compounds were tested at 2 μM bi-directionally in duplicate. Digoxin, nadolol and metoprolol were included as standards. Digoxin was tested at 10 μM bi-directionally in duplicate, while nadolol and metoprolol were tested at 2 μM in the A to B direction in duplicate. The final DMSO concentration was adjusted to less than 1% for all experiments. The plate was incubated for 2 hours in a CO2 incubator at 37° C., with 5% CO2 at saturated humidity. After incubation, all wells were mixed with acetonitrile containing an internal standard, and the plate was centrifuged at 4,000 rpm for 10 minutes. 100 μL supernatant was collected from each well and diluted with 100 μL distilled water for LC/MS/MS analysis. Concentrations of test and control compounds in starting solution, donor solution, and receiver solution were quantified by LC/MS/MS, using peak area ratio of analyte/internal standard. The apparent permeability coefficient Papp (cm/s) was calculated using the equation: Papp=(dCr/dt)×Vr/(A×C0) Where dCr/dt is the cumulative concentration of compound in the receiver chamber as a function of time (μM/s); Vr is the solution volume in the receiver chamber (0.075 mL on the apical side, 0.25 mL on the basolateral side); A is the surface area for the transport, which is 0.0804 cm^2 for the area of the monolayer; C0 is the initial concentration in the donor chamber (μM).

[5] = tested on: CYP isozymes (IC50s averaged over the isozymes); test: CYP Enzymatic Inhibition Assay in human liver microsomes
Experimental: Inhibition of various CYP isozymes was measured for each compound using a CYP enzyme inhibition assay in human liver microsomes (HLM). Compounds and standard inhibitors were prepared at a 100× working solutions. Substrates or PBS were added to the corresponding wells followed by addition of compounds, solvent or positive control working solution to corresponding wells. HLMs were added to the pre-warmed (37° C.) plate and mixed with NADPH cofactor for 10 minutes at 37° C. The reaction was terminated by adding 400 μL cold stop solution (200 ng/mL Tolbutamide and 200 ng/mL Labetalol in ACN). The plate was centrifuged at 4,000 rpm for 20 minutes, and supernatant was transferred to 100 μL HPLC water followed by LC/MS/MS analysis.

[6] = Measurement of Compound Metabolic Stability in hepatocytes
hERG potassium channels = hERG potassium channels (Homo sapiens (Human), UniProt Q12809); test: hERG Inhibition Assay (QPatch automated patch clamp, CHO cells); details: percent of control current
Sequence of hERG potassium channels (Q12809 whole entry): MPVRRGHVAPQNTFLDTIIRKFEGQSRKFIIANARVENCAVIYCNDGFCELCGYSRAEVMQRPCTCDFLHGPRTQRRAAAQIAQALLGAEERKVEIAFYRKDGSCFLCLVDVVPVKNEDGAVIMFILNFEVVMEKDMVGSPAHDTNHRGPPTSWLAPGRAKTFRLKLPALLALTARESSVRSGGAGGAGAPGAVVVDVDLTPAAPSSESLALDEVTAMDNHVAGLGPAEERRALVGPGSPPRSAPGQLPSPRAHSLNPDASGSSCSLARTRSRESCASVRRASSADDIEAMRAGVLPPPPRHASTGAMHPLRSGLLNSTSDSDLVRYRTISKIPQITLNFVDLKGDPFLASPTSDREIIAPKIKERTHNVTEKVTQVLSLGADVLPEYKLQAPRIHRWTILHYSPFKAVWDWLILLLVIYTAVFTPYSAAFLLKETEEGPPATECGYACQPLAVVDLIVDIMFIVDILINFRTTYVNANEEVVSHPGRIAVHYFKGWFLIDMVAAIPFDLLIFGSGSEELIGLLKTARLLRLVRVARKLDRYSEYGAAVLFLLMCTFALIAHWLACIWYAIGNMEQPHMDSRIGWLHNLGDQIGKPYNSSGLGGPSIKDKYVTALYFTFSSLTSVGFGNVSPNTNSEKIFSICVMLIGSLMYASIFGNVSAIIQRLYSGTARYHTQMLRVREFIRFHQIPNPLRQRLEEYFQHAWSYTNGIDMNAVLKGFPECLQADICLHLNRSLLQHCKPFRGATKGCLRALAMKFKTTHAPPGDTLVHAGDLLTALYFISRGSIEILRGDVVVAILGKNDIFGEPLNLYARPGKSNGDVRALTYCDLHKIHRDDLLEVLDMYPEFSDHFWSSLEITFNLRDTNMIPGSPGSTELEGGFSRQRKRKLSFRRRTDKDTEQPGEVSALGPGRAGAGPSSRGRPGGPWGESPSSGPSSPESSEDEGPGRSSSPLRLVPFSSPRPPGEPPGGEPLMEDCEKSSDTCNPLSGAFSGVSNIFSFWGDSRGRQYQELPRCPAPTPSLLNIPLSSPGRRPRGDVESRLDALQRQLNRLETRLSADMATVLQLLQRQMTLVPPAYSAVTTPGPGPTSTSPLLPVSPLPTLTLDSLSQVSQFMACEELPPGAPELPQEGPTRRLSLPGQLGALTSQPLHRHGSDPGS

[7] = 50 mM phosphate buffer, pH 7.4, aqueous buffer, read-out: KS7
[8] = simulated gastric fluid, kinetic solubility, SGF buffer pH 1.2, 37° C., 24 hours, read-out: KS1

Sequence of CDK4 (P11802 whole entry): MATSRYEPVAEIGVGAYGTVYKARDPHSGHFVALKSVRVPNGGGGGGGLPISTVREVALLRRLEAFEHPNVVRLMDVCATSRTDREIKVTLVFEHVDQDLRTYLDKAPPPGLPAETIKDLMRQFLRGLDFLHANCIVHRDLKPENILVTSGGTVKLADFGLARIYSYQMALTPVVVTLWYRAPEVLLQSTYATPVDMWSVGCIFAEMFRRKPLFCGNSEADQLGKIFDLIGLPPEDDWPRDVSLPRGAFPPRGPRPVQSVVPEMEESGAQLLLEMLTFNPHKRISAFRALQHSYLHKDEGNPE
Sequence of CDK4 (P24385 whole entry partner): as the sequence (P24385 whole entry partner) above

Row | Structure (SMILES) | Ki (CDK4) [nM] | Ki (CDK6) [nM] | IC50 [1] [nM] | Ther Window [1] | IC50 [2] [nM] | solubility kinetic at 24 h [3, 7] [µM] | solubility kinetic at 24 h [3, 8] [µM] | Papp A→B at 2 h, 2 μM [4] [×10⁻⁶ cm/s] | IC50 at 10 min [5] [nM] | half-life at 1 μM [6] [min] | hERG (hERG potassium channels) [%]
1 | Cc1nc2c(F)cc(-c3nc(Nc4ccc(CN5CCO[C@@](C)(C[C@@H](C)N(C)C)C5)cn4)ncc3F)cc2n1C(C)C [Compound A28, N-(5-(((S)-2-((R)-2-(dimethylamino)propyl)-2-methylmorpholino)methyl)pyridin-2-yl)-5-fluoro-4-(4-fluoro-1-isopropyl-2-methyl-1H-benzo[d]imidazol-6-yl)pyrimidin-2-amine methanesulfonate] | 0.46 | 2.6 | 70 | 5.23 | 390 | 15.8 | 200 | 0.09 | 94000 | 55.2 | 6.78
2 | COC(=O)N1CC[C@]2(CN(Cc3ccc(Nc4ncc(F)c(-c5cc(F)c6nc(C)n(C(C)C)c6c5)n4)nc3)CCO2)C1 [Compound A30, methyl (S)-9-((6-((5-fluoro-4-(4-fluoro-1-isopropyl-2-methyl-1H-benzo[d]imidazol-6-yl)pyrimidin-2-yl)amino)pyridin-3-yl)methyl)-6-oxa-2,9-diazaspiro[4.5]decane-2-carboxylate] | 2.95 | 16.5 | 110 | 9.41 | 990 | 2.52 (≈ 1.49 µg/mL) | 200 (≈ 119 µg/mL) | 4.6 | 30000 | 4.99 | 15.21
3 | Cc1nc2c(F)cc(-c3nc(Nc4ccc(CN5CCO[C@@]6(CCN(S(C)(=O)=O)C6)C5)cn4)ncc3F)cc2n1C(C)C [Compound A31, (S)-5-fluoro-4-(4-fluoro-1-isopropyl-2-methyl-1H-benzo[d]imidazol-6-yl)-N-(5-((2-(methylsulfonyl)-6-oxa-2,9-diazaspiro[4.5]decan-9-yl)methyl)pyridin-2-yl)pyrimidin-2-amine] | 1.71 | 10.2 | 140 | 6.72 | 960 | 3.09 (≈ 1.89 µg/mL) | 200 (≈ 123 µg/mL) | 0.85 | 12800 | 5.65 | 21.67
4 | Cc1nc2c(F)cc(-c3nc(Nc4ccc(CN5CCO[C@]6(CCN(S(C)(=O)=O)C6)C5)cn4)ncc3F)cc2n1C(C)C [Compound A32] | 3.07 | 17.4 | 160 | 6.24 | 1000 | 1.6 (≈ 0.98 µg/mL) | 200 (≈ 123 µg/mL) | 1.08 | 31500 | 4.24 | 14.35
5 | COC(=O)N1CC[C@@]2(CN(Cc3ccc(Nc4ncc(F)c(-c5cc(F)c6nc(C)n(C(C)C)c6c5)n4)nc3)CCO2)C1 [Compound A33] | 3.42 | 20.1 | 150 | 6.51 | 1000 | 2.02 (≈ 1.2 µg/mL) | 200 (≈ 119 µg/mL) | 3.94 | 18700 | 4.73 | 18.72
6 | CC(=O)N1CC[C@@]2(CN(Cc3ccc(Nc4ncc(F)c(-c5cc(F)c6nc(C)n(C(C)C)c6c5)n4)nc3)CCO2)C1 [Compound A36] | 1.91 | 10.8 | 250 | 3.57 | 910 | 3.28 (≈ 1.89 µg/mL) | 200 (≈ 115 µg/mL) | 0.59 | 23400 | 30.8 | 21.60
7 | CC(=O)N1CC[C@]2(CN(Cc3ccc(Nc4ncc(F)c(-c5cc(F)c6nc(C)n(C(C)C)c6c5)n4)nc3)CCO2)C1 [Compound A37, (S)-1-(9-((6-((5-fluoro-4-(4-fluoro-1-isopropyl-2-methyl-1H-benzo[d]imidazol-6-yl)pyrimidin-2-yl)amino)pyridin-3-yl)methyl)-6-oxa-2,9-diazaspiro[4.5]decan-2-yl)ethan-1-one] | 1.6 | 6.86 | 260 | 3.10 | 810 | 109 (≈ 62.9 µg/mL) | 197 (≈ 114 µg/mL) | 0.39 | 43300 | 27 | 15.08
8 | Cc1nc2c(F)cc(-c3nc(Nc4ccc(CN5CCO[C@]6(CCN(C)C6)C5)cn4)ncc3F)cc2n1C(C)C [Compound A38] | 1.47 | 7.23 | 220 | 3.81 | 840 | 40.5 (≈ 22.2 µg/mL) | 200 (≈ 110 µg/mL) | 0.17 | 80200 | 38.2 | 10.65
9 | Cc1nc2c(F)cc(-c3nc(Nc4ccc(CN5CCN(C)C(C)(C)C5)cn4)ncc3F)cc2n1C(C)C [Compound A43, 5-fluoro-4-(4-fluoro-1-isopropyl-2-methyl-1H-benzo[d]imidazol-6-yl)-N-(5-((3,3,4-trimethylpiperazin-1-yl)methyl)pyridin-2-yl)pyrimidin-2-amine] | 0.77 | 4.13 | 70 | 15.03 | 1000 | 8.37 (≈ 4.36 µg/mL) | 200 (≈ 104 µg/mL) | 0.27 | 90600 | 24.2 | 12.12
10 | Cc1nc2c(F)cc(-c3nc(Nc4ccc(CN5CCNC(C)(C)C5)cn4)ncc3F)cc2n1C(C)C [Compound A44, N-(5-((3,3-dimethylpiperazin-1-yl)methyl)pyridin-2-yl)-5-fluoro-4-(4-fluoro-1-isopropyl-2-methyl-1H-benzo[d]imidazol-6-yl)pyrimidin-2-amine] | 0.7 | 3.04 | 90 | 10.25 | 960 | 6.3 (≈ 3.19 µg/mL) | 200 (≈ 101 µg/mL) | 0.01 | 64200 | 81.2 | 10.84
11 | CCC[C@@]1(C)CN(Cc2ccc(Nc3ncc(F)c(-c4cc(F)c5nc(C)n(C(C)C)c5c4)n3)nc2)CCN1 [Compound A47, (S)-5-fluoro-4-(4-fluoro-1-isopropyl-2-methyl-1H-benzo[d]imidazol-6-yl)-N-(5-((3-methyl-3-propylpiperazin-1-yl)methyl)pyridin-2-yl)pyrimidin-2-amine] | 1.01 | 5.17 | 90 | 4.96 | 460 | 1 (≈ 0.535 µg/mL) | 193 (≈ 103 µg/mL) | 0.04 | 30000 | 126 | 21.76
